According to US5438052A, “Cephalosporin derivatives” (Hoffmann-La Roche Inc., priority 1991, dated 1995):
≈ marks a conversion by molar mass, not a printed value. Read-outs that look alike come from different tables or passages of the source.

Experiments:
P. aeruginosa BA = assay: Minimum inhibitory concentration in vitro, agar dilution method; type: cell-based; conditions: Pseudomonas aeruginosa
From the text: (§1) 1. Minimum Inhibitory Concentration in vitro
(§2) The activities ascertained, minimum inhibitory concentration (MIC) in μg/ml, are compiled in Table 1 hereinafter: […]

K. pneumoniae 418 = assay: as above; type: cell-based; conditions: Klebsiella pneumoniae
From the text: as §1, §2

P. vulgaris 1028 = assay: as above; type: cell-based; conditions: Proteus vulgaris
From the text: as §1, §2

E. cloacae 908R = assay: as above; type: cell-based; conditions: Enterobacter cloacae
From the text: as §1, §2

S. marcescens 69438 = assay: as above; type: cell-based; conditions: Serratia marcescens
From the text: as §1, §2

C. freundii 902 = assay: as above; type: cell-based; conditions: Citrobacter freundii
From the text: as §1, §2

E. cloacae 908SSi = assay: as above; type: cell-based; conditions: Enterobacter cloacae
From the text: as §1, §2

P. aeruginosa MK1184 = assay: as above; type: cell-based; conditions: Pseudomonas aeruginosa
From the text: as §1, §2

P. mirabilis 2117 = assay: as above; type: cell-based; conditions: Proteus mirabilis
From the text: as §1, §2

P. aeruginosa 799/61 = assay: as above; type: cell-based; conditions: Pseudomonas aeruginosa
From the text: as §1, §2

E. coli 25922 [1] = assay: as above; type: cell-based; conditions: Escherichia coli
From the text: as §1, §2

E. cloacae P99 = assay: as above; type: cell-based; conditions: Enterobacter cloacae
From the text: as §1, §2

S. aureus 6538 = assay: as above; type: cell-based; conditions: Staphylococcus aureus
From the text: as §1, §2

P. aeruginosa 799/WT = assay: as above; type: cell-based; conditions: Pseudomonas aeruginosa
From the text: as §1, §2

S. pyogenes 15 = assay: as above; type: cell-based; conditions: Streptococcus pyogenes
From the text: as §1, §2

S. pneumoniae BA = assay: as above; type: cell-based; conditions: Streptococcus pneumoniae; S. pneumoniae BA, agar dilution; read-out: MIC
From the text: as §1, §2

P. aeruginosa 27853 = assay: as above; type: cell-based; conditions: Pseudomonas aeruginosa
From the text: as §1, §2

K. oxytoca 1082 = assay: as above; type: cell-based; conditions: Klebsiella oxytoca
From the text: as §1, §2

[2] = test system: Pseudomonas aeruginosa BA; assay: Experimental systemic septicaemia in the mouse; type: in vivo; conditions: sc, 96 h
Method: (§3) 2. Experimental systemic septicaemia in the mouse
(§4) An experimental systemic septicaemia was produced in albino mice weighing 16-20 g by intraperitoneally injecting into the experimental animals a sample of a dilute culture of the test organism which had been grown overnight. The sample administered is calculated such that the dosage administered is about 5-100 times greater than the dosage which is required to kill 50% of untreated experimental animals within 48 hours. The bacteria were injected as a suspension in the culture broth. Groups of 5 experimental animals each were used not only for the control, but also for the treatment for each dosage tested. The products in accordance with the invention were administered subcutaneously as a suspension in Tween 80 (2%), whereby the concentrations were chosen such that each experimental animal received 500 μl per administration. The respective concentrations were administered twice, namely 1 and 3 hours after the infection (in the case of P. aeruginosa three times, namely 1, 3 and 5 hours after the infection). The ED50 is that dosage which protects 50% of the experimental animals and was calculated by means of the Probit method on the basis of the survial rate after 4 days following the infection. The ED50 values in mg/kg s.c. (subcutaneous) for representatives of the class of substance in accordance with the invention are given in Table 2 hereinafter.

E. coli 25922 [3] = assay: Experimental systemic septicaemia in the mouse; type: in vivo; conditions: 96 h
Method: as §3, §4

[4] = P. aeruginosa BA, agar dilution, read-out: MIC
[5] = K. pneumoniae 418, agar dilution, read-out: MIC
[6] = P. vulgaris 1028, agar dilution, read-out: MIC
[7] = E. cloacae 908R, agar dilution, read-out: MIC
[8] = S. marcescens 69438, agar dilution, read-out: MIC
[9] = C. freundii 902, agar dilution, read-out: MIC
[10] = E. cloacae 908SSi, agar dilution, read-out: MIC
[11] = P. aeruginosa MK1184, agar dilution, read-out: MIC
[12] = P. mirabilis 2117, agar dilution, read-out: MIC
[13] = P. aeruginosa 799/61, agar dilution, read-out: MIC
[14] = E. coli 25922, agar dilution, read-out: MIC
[15] = S. aureus 6538, agar dilution, read-out: MIC
[16] = P. aeruginosa 799/WT, agar dilution, read-out: MIC
[17] = S. pyogenes 15, agar dilution, read-out: MIC
[18] = P. aeruginosa 27853, agar dilution, read-out: MIC
[19] = K. oxytoca 1082, agar dilution, read-out: MIC
[20] = P. aeruginosa BA, albino mice, s.c. 1, 3 and 5 hours after infection, survival after 4 days, read-out: ED50
[21] = Escherichia coli, sc, E. coli 25922, albino mice, s.c. 1 and 3 hours after infection, survival after 4 days, read-out: ED50

| Structure (SMILES) | MIC (P. aeruginosa BA; [4]) [µg/mL] | MIC (K. pneumoniae 418; [5]) [µg/mL] | MIC (P. vulgaris 1028; [6]) [µg/mL] | MIC (E. cloacae 908R; [7]) [µg/mL] | MIC (S. marcescens 69438; [8]) [µg/mL] | MIC (C. freundii 902; [9]) [µg/mL] | MIC (E. cloacae 908SSi; [10]) [µg/mL] | MIC (P. aeruginosa MK1184; [11]) [µg/mL] | MIC (P. mirabilis 2117; [12]) [µg/mL] | MIC (P. aeruginosa 799/61; [13]) [µg/mL] | MIC (E. coli 25922 [1]; [14]) [µg/mL] | MIC (E. cloacae P99) [µg/mL] | MIC (S. aureus 6538; [15]) [µg/mL] | MIC (P. aeruginosa 799/WT; [16]) [µg/mL] | MIC (S. pyogenes 15; [17]) [µg/mL] | MIC (S. pneumoniae BA) [µg/mL] | MIC (P. aeruginosa 27853; [18]) [µg/mL] | MIC (K. oxytoca 1082; [19]) [µg/mL] | ED50 [2, 20] [mg/kg] | ED50 (E. coli 25922 [3]; [21]) [mg/kg] | also measured |
| --- | --- | --- | --- | --- | --- | --- | --- | --- | --- | --- | --- | --- | --- | --- | --- | --- | --- | --- | --- | --- | --- |
| CC(C)(O/N=C(\C(=O)N[C@@H]1C(=O)N2C(C(=O)O)=C(CS(=O)(=O)c3ccc(O)c(O)c3)CS[C@H]12)c1csc(N)n1)C(=O)NO [Example 21, (6R,7R)-7-[(Z)-2-(2-amino-4-thiazolyl)-2-[[(1-hydroxycarbamoyl)-1-methylethoxy]imino]acetamido]-3-[[(3,4-dihydroxyphenyl)sulphonyl]methyl]-8-oxo-5-thia-1-azabicyclo[4.2.0]oct-2-ene-2-carboxylic acid] | 8 (≈ 12.2 µM) | 0.5 (≈ 0.761 µM) | 2 (≈ 3.05 µM) | 8 (≈ 12.2 µM) | 1 (≈ 1.52 µM) | 4 (≈ 6.09 µM) | 8 (≈ 12.2 µM) | > 32 | 1 (≈ 1.52 µM) | 0.25 (≈ 0.381 µM) | 1 (≈ 1.52 µM) | 16 (≈ 24.4 µM) | > 32 | 8 (≈ 12.2 µM) | 16 (≈ 24.4 µM) | 8 (≈ 12.2 µM) | 8 (≈ 12.2 µM) | 1 (≈ 1.52 µM) | 0.39 | < 0.3 | – |
| Nc1nc(/C(=N/OCc2ccc(O)c(O)c2)C(=O)N[C@@H]2C(=O)N3C(C(=O)O)=C(CS(=O)(=O)c4ccc(O)c(O)c4)CS[C@H]23)cs1 [Example 23, (6R,7R)-7-[(Z)-2-(2-amino-4-thiazolyl)-2-[[(3,4-dihydroxybenzyl)oxy]imino]acetamido]-3-[[(3,4-dihydroxyphenyl)sulphonyl]methyl]-8-oxo-5-thia-1-azabicyclo[4.2.0]oct-2-ene-2-carboxylic acid] | 32 (≈ 47.2 µM) | 0.12 (≈ 0.177 µM) | 2 (≈ 2.95 µM) | > 32 | 2 (≈ 2.95 µM) | 4 (≈ 5.9 µM) | 16 (≈ 23.6 µM) | > 32 | 1 (≈ 1.48 µM) | 0.12 (≈ 0.177 µM) | 0.25 (≈ 0.369 µM) | > 32 | 16 (≈ 23.6 µM) | 1 (≈ 1.48 µM) | 4 (≈ 5.9 µM) | 4 (≈ 5.9 µM) | 32 (≈ 47.2 µM) | 16 (≈ 23.6 µM) | – | – | – |
| Cc1cc(SCC2=C(C(=O)[O-])N3C(=O)[C@@H](NC(=O)/C(=N\OCS(=O)(=O)c4ccc(O)c(O)c4)c4csc(N)n4)[C@H]3SC2)n2nc(CS(=O)(=O)c3ccc(O)c(O)c3)nc2n1.[Na+] [Example 10, (6R,7R)-7-[(Z)-2-(2-amino-4-thiazolyl)-2-[[[(3,4-dihydroxyphenyl)sulphonyl]methoxy]imino]acetamido]-3-[[[2-[[(3,4-dihydroxyphenyl)sulphonyl]methyl]-5-methyl-s-triazolo[1,5-a]pyrimidin-7-yl]thio]methyl]-8-oxo-5-thia-1-azabicyclo[4.2.0]oct-2-ene-2-carboxylic acid sodium salt (1:1)] | – | – | – | – | – | – | – | – | – | – | – | 16 | – | – | – | – | – | – | – | – | MIC (P. aeruginosa BA): < 0.1 µg/mL; MIC (K. pneumoniae 418; 418): < 0.1 µg/mL; MIC (P. vulgaris 1028; 1028): < 0.1 µg/mL; MIC (E. cloacae 908R; 908R): 2 µg/mL; MIC (S. marcescens 69438; 69438): 0.12 µg/mL; MIC (C. freundii 902; 902): 0.12 µg/mL; MIC (E. cloacae 908SSi; 908SSI): 8 µg/mL; MIC (P. aeruginosa MK1184; MK1184): < 0.1 µg/mL; MIC (P. mirabilis 2117; 2117): < 0.1 µg/mL; MIC (P. aeruginosa 799/61; 799/61): < 0.1 µg/mL; MIC (E. coli 25922 [1]; 25922): < 0.1 µg/mL; MIC (S. aureus 6538; 6538): 32 µg/mL; MIC (P. aeruginosa 799/WT; 799/WT): < 0.1 µg/mL; MIC (S. pyogenes 15; 15): 4 µg/mL; MIC (P. aeruginosa 27853; 27853): < 0.1 µg/mL; MIC (K. oxytoca 1082; 1082): 4 µg/mL; ED50 [2]: 0.15 mg/kg; ED50 (E. coli 25922 [3]; Escherichia coli, 25922, sc): < 0.1 mg/kg |
| CC(C)(O/N=C(\C(=O)N[C@@H]1C(=O)N2C(C(=O)O)=C(CSc3nnc(-c4ccc(O)c(O)c4)o3)CS[C@H]12)c1csc(N)n1)C(=O)NNC(=O)c1ccc(O)c(O)c1 [Example 45, (6R,7R)-7-[(Z)-2-(2-amino-4-thiazolyl)-2-[[1-[3-(3,4-dihydroxybenzoyl)carbazoyl]-1-methylethoxy]imino]acetamido]-3-[[[5-(3,4-dihydroxyphenyl)-1,3,4-oxadiazol-2-yl]thio]methyl]-8-oxo-5-thia-1-azabicyclo[4.2.0]oct-2-ene-2-carboxylic acid] | 0.06 (≈ 0.0725 µM) | 0.06 (≈ 0.0725 µM) | – | > 32 | 0.06 (≈ 0.0725 µM) | 0.06 (≈ 0.0725 µM) | 2 (≈ 2.42 µM) | 1 (≈ 1.21 µM) | – | 0.64 (≈ 0.773 µM) | 0.06 (≈ 0.0725 µM) | > 32 | 16 (≈ 19.3 µM) | 0.06 (≈ 0.0725 µM) | 1 (≈ 1.21 µM) | 0.25 (≈ 0.302 µM) | 0.12 (≈ 0.145 µM) | 0.06 (≈ 0.0725 µM) | 2.1 | 0.13 | – |
| Nc1nc(/C(=N/OCc2nc(=O)c(O)c[nH]2)C(=O)N[C@@H]2C(=O)N3C(C(=O)O)=C(CSc4cc(-c5ccc(O)c(O)c5)nc5ccnn45)CS[C@H]23)cs1 [Example 13, (6R,7R)-7-[(Z)-2-(2-amino-4-thiazolyl)-2-[[(1,4-dihydro-5-hydroxy-4-oxo-2-pyrimidinyl)methoxy]imino]acetamido]-3-[[[5-(3,4-dihydroxyphenyl)pyrazolo[1,5-a]pyrimidin-7-yl]thio]methyl]-8-oxo-5-thia-1-azabicyclo[4.2.0]oct-2-ene-2-carboxylic acid] | 2 (≈ 2.62 µM) | 0.06 (≈ 0.0785 µM) | 0.06 (≈ 0.0785 µM) | 1 (≈ 1.31 µM) | 0.12 (≈ 0.157 µM) | 0.25 (≈ 0.327 µM) | 4 (≈ 5.23 µM) | 8 (≈ 10.5 µM) | 0.06 (≈ 0.0785 µM) | 0.06 (≈ 0.0785 µM) | 0.06 (≈ 0.0785 µM) | 8 (≈ 10.5 µM) | 16 (≈ 20.9 µM) | 1 (≈ 1.31 µM) | 1 (≈ 1.31 µM) | – | 4 (≈ 5.23 µM) | 0.06 (≈ 0.0785 µM) | 4 | – | – |
| Cc1cc(SCC2=C(C(=O)O)N3C(=O)[C@@H](NC(=O)/C(=N\OC(C)(C)C(=O)NO)c4csc(N)n4)[C@H]3SC2)n2nc(CNS(=O)(=O)c3ccc(O)c(O)c3)nc2n1 [Example 1, (6R,7R)-7-[(Z)-2-(2-amino-4-thiazolyl)-2-[[(1-hydroxycarbamoyl)-1-methylethoxy]imino]acetamido]-3-[[[2-[(3,4-dihydroxybenzenesulphonamido)methyl]-5-methyl-s-triazolo[1.5-a]pyrimidin-7-yl]thio]methyl]-8-oxo-5-thia-1-azabicyclo[4.2.0]oct-2-ene-2-carboxylic acid] | 0.5 (≈ 0.588 µM) | 0.12 (≈ 0.141 µM) | 0.5 (≈ 0.588 µM) | 16 (≈ 18.8 µM) | 0.25 (≈ 0.294 µM) | 1 (≈ 1.18 µM) | 4 (≈ 4.71 µM) | 4 (≈ 4.71 µM) | 0.12 (≈ 0.141 µM) | 0.25 (≈ 0.294 µM) | 0.25 (≈ 0.294 µM) | 32 (≈ 37.7 µM) | 16 (≈ 18.8 µM) | 0.5 (≈ 0.588 µM) | 4 (≈ 4.71 µM) | – | 4 (≈ 4.71 µM) | 0.5 (≈ 0.588 µM) | – | – | – |
